Some test systems named below: EKVX; HCT-116; HCT-15; HOP-62; MCF7; MDA-MB-231; MOLT-4; NCI-H226; NCI-H460; OVCAR-3; PC-3; RXF 393; SF-295; SF-539; SK-MEL-28; SK-MEL-5; SR; SW-620; T47D; UO-31.
What all share (experiment): NCI-60 cell line screen, 48 h

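Tested at 5 concentrations; 48 h exposure; 96-well plates; endpoints linearly interpolated, else capped at highest concentration. Abbreviation: GI50, concentration required for 50% inhibition of growth.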 Activity calls are given as the source filed them. Rule as the data show it: active = GI50 up to about 1.1 µM and inactive = higher.

Consider `C=CCSC1=N/C(=C\c2cccs2)C(=O)N1CC=C`, for which the GI50 with EKVX was 19.2 µM (inactive); in the assay with HCT-116, 32.7 µM (inactive); in the assay with HCT-15, 66.1 µM; with HOP-62 it was > 100 µM (inactive); in the assay with MCF7, 27.3 µM (inactive); with MDA-MB-231 it was 83.4 µM (inactive). Moreover, the GI50 is 18.7 µM (inactive) with MOLT-4; 44.2 µM (inactive) in the assay on NCI-H226; 61.9 µM (inactive) in the assay on NCI-H460; > 100 µM (inactive) with OVCAR-3; 33.7 µM (inactive) in the assay with PC-3; 16.7 µM (inactive) in the assay with RXF 393. In addition, the GI50 in the assay with SF-295 was 81.5 µM (inactive); in the assay on SF-539, > 100 µM (inactive); with SK-MEL-28, > 100 µM (inactive); in the assay on SK-MEL-5, 32.3 µM (inactive); in the assay on SR, 32.5 µM (inactive); with SW-620 it was 82.2 µM (inactive). For the same compound, the GI50 in the assay with T47D was 15.4 µM (inactive); in the assay on UO-31, 37.4 µM (inactive).

`O=C(c1ccccc1)c1cc[n+](C2=C([N-]S(=O)(=O)c3ccccc3)C(=O)c3ccccc3C2=O)cc1`: the GI50 in the assay on EKVX is 14 µM (inactive); in the assay with HCT-116 it was 11.3 µM (inactive); with HCT-15, 14.4 µM; in the assay on HOP-62 it was 10.6 µM (inactive); in the assay with MCF7 it was 8.79 µM (inactive); with MDA-MB-231, 12.9 µM (inactive). The GI50 with MOLT-4 was 3.05 µM (inactive); in the assay on NCI-H226, 15.8 µM (inactive); in the assay with NCI-H460 it was 13.5 µM (inactive); in the assay with OVCAR-3, 3.1 µM (inactive); in the assay on PC-3, 11.1 µM (inactive); with RXF 393, 12.4 µM (inactive). The GI50 in the assay with SF-295 was 11.8 µM (inactive); in the assay on SF-539, 12.9 µM (inactive); with SK-MEL-28, 3.22 µM (inactive); in the assay on SK-MEL-5, 2.01 µM (inactive); in the assay on SR, 3.08 µM (inactive); in the assay on SW-620 it was 10 µM (inactive). Also, the figures for the GI50 with T47D and in the assay on UO-31 were 3.33 µM (inactive) and 11.7 µM (inactive), respectively.

In the case of `COc1nc2c(c(=O)n1C)N[C@H]1[C@H](OC(C)=O)[C@@H](OC(C)=O)CO[C@H]1N2`, the GI50 in the assay on EKVX was > 100 µM (inactive); in the assay with HCT-116, > 100 µM (inactive); with HCT-15, over 100 µM; in the assay with HOP-62, > 100 µM (inactive); with MCF7 it was > 100 µM (inactive); with MDA-MB-231 it was > 100 µM (inactive). The GI50 with MOLT-4, in the assay on NCI-H226, with NCI-H460, in the assay with OVCAR-3, with PC-3 and in the assay on RXF 393 was > 100 µM (inactive) throughout. In addition, the GI50 with SF-295, in the assay on SF-539, with SK-MEL-28, in the assay on SK-MEL-5, with SR and in the assay with SW-620 was > 100 µM (inactive) throughout. In addition, the GI50 in the assay with T47D and in the assay with UO-31 was > 100 µM (inactive) each time.

Consider `COC(C)(C)/C=C/c1[nH]c2ccccc2c1CC(=O)NCCc1cn(C(c2ccccc2)(c2ccccc2)c2ccccc2)cn1`, for which the GI50 was 3.44 µM (inactive) in the assay with EKVX; 4.12 µM (inactive) in the assay with HCT-116; 4.25 µM with HCT-15; 5.92 µM (inactive) in the assay on HOP-62; 3.66 µM (inactive) with MCF7; 4.72 µM (inactive) with MDA-MB-231. For the same compound, the GI50 in the assay with MOLT-4 is 2.36 µM (inactive); with NCI-H226, 3.65 µM (inactive); with NCI-H460 it was 2.62 µM (inactive); with OVCAR-3 it was 4.92 µM (inactive); in the assay with PC-3, 3.44 µM (inactive); in the assay with RXF 393, 7.16 µM (inactive). The GI50 is 4.7 µM (inactive) in the assay with SF-295; 4.13 µM (inactive) in the assay with SF-539; 9.77 µM (inactive) with SK-MEL-28; 2.92 µM (inactive) in the assay with SK-MEL-5; 2.23 µM (inactive) with SR; 4.23 µM (inactive) with SW-620. Also, the figures for the GI50 in the assay with T47D and in the assay on UO-31 were 2.71 µM (inactive) and 5.77 µM (inactive), respectively.

Turning to `COc1ccc(CCNC(=S)NC=C2C(=O)c3ccccc3C2=O)cc1OC`, the GI50 in the assay on EKVX was > 100 µM (inactive); with HCT-116, > 100 µM (inactive); in the assay on HCT-15, over 100 µM; in the assay on HOP-62, > 100 µM (inactive); with MCF7 it was 89.9 µM (inactive); in the assay with MDA-MB-231 it was 68.1 µM (inactive). Also, the GI50 was 83.9 µM (inactive) with MOLT-4; > 100 µM (inactive) in the assay on NCI-H226; 10 µM (inactive) in the assay with NCI-H460; 0.0982 µM (active) in the assay on OVCAR-3; > 100 µM (inactive) in the assay on PC-3; > 100 µM (inactive) in the assay on RXF 393. The GI50 in the assay on SF-295 is > 100 µM (inactive); with SF-539, 0.433 µM (active); in the assay with SK-MEL-28, > 100 µM (inactive); with SK-MEL-5, > 100 µM (inactive); in the assay with SR, 82 µM (inactive); in the assay with SW-620, > 100 µM (inactive). Also, the GI50 in the assay on T47D was > 100 µM (inactive); with UO-31 it was 27.7 µM (inactive).

Regarding `CN(c1ccccc1Cl)S(=O)(=O)c1ccc([N+](=O)[O-])cc1`, the GI50 with EKVX was > 100 µM (inactive); in the assay on HCT-116, > 100 µM (inactive); with HCT-15, over 100 µM; in the assay on HOP-62 it was > 100 µM (inactive); in the assay with MCF7, > 100 µM (inactive); in the assay with MDA-MB-231 it was > 100 µM (inactive). Further, the GI50 in the assay with MOLT-4, with NCI-H226, in the assay with NCI-H460, with OVCAR-3, with PC-3 and in the assay on RXF 393 was > 100 µM (inactive) throughout. Moreover, the GI50 in the assay on SF-295, in the assay on SF-539, in the assay on SK-MEL-28, in the assay with SK-MEL-5, in the assay with SR and in the assay with SW-620 was > 100 µM (inactive) throughout. Further, the GI50 in the assay with T47D and in the assay with UO-31 was > 100 µM (inactive) each time.

As to `CC(C)(CN1CCCCC1)C(=O)/C=C/c1ccc(/C=C/C(=O)C(C)(C)CN2CCCCC2)cc1`, the GI50 in the assay on EKVX was 1.71 µM (inactive); in the assay with HCT-116, 0.303 µM (active); with HCT-15, 0.204 µM; in the assay with HOP-62, 0.946 µM (active); in the assay on MCF7 it was 0.247 µM (active); in the assay on MDA-MB-231, 0.196 µM (active). Moreover, the GI50 in the assay with MOLT-4 is 0.11 µM (active); in the assay on NCI-H226 it was 1.84 µM (inactive); in the assay with NCI-H460 it was 0.684 µM (active); in the assay on OVCAR-3, 0.369 µM (active); in the assay on PC-3 it was 0.273 µM (active); in the assay with RXF 393 it was 0.28 µM (active). In addition, the GI50 is 0.661 µM (active) with SF-295; 0.538 µM (active) in the assay on SF-539; 1.17 µM (inactive) with SK-MEL-28; 1.04 µM (active) in the assay with SK-MEL-5; 0.103 µM (active) in the assay on SR; 0.112 µM (active) in the assay on SW-620. Further, the GI50 is 0.525 µM (active) in the assay with T47D and 1.14 µM (inactive) with UO-31.

For the origin of these results see ChEMBL document CHEMBL1201862, “PubChem BioAssay data set” (2004).
